Test results as given in PubChem BioAssay (NCI).
Several values for one entry are separate records, joined by “and”; a condition that tells them apart may be missing. Equal entries are not always repeated.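 Following 48 hours of exposure in 96-well plates, responses at five concentrations were used to interpolate endpoints linearly. The concentration for 50% growth inhibition is given as GI50. At the TGI there is no net growth.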

What was measured:
Assay in all cases: DTP human tumour cell line panel, 48 h
[1] = test system: SK-OV-3 ovarian
[2] = test system: IGROV1 ovarian
[3] = test system: SK-MEL-2 melanoma
[4] = test system: LOX IMVI melanoma
[5] = test system: SNB-19 CNS
[6] = test system: SF-539 CNS
[7] = test system: HOP-92 NSCLC
[8] = test system: T-47D breast
[9] = test system: SNB-75 CNS
[10] = test system: KM12 colon
[11] = test system: CCRF-CEM leukemia
[12] = test system: EKVX NSCLC
[13] = test system: A549 NSCLC
[14] = test system: HCC-2998 colon
[15] = test system: PC-3 prostate
[16] = test system: OVCAR-8 ovarian
[17] = test system: SF-268 CNS
[18] = test system: SK-MEL-5 melanoma
[19] = test system: SK-MEL-28 melanoma
[20] = test system: COLO 205 colon
[21] = test system: MALME-3M melanoma
[22] = test system: UACC-257 melanoma
[23] = test system: HCT-116 colon
[24] = test system: RXF 393 renal
[25] = test system: 786-0 renal
[26] = test system: ACHN renal
[27] = test system: DU-145 prostate
[28] = test system: A498 renal
[29] = test system: UO-31 renal
[30] = test system: CAKI-1 renal
[31] = test system: HOP-62 NSCLC
[32] = test system: MCF7 breast
[33] = test system: OVCAR-5 ovarian
[34] = test system: NCI-H226 lung
[35] = test system: NCI-H522 lung
[36] = test system: HL-60(TB) leukemia
[37] = test system: SF-295 CNS
[38] = test system: OVCAR-4 ovarian
[39] = test system: K-562 leukemia
[40] = test system: HT29 colon
[41] = test system: SW-620 colon
[42] = test system: SR leukemia
[43] = test system: NCI-H460 lung
[44] = test system: MOLT-4 leukemia
[45] = test system: OVCAR-3 ovarian
[46] = test system: MDA-MB-231 breast
[47] = test system: RPMI-8226 leukemia
[48] = test system: NCI-H23 lung
[49] = test system: BT-549 breast
[50] = test system: M14 melanoma
[51] = test system: MDA-MB-435
[52] = test system: SN12C renal
[53] = test system: UACC-62 melanoma
[54] = test system: NCI/ADR-RES ovarian
[55] = test system: HCT-15 colon
[56] = test system: HS 578T breast
[57] = test system: U251 CNS
[58] = test system: TK-10 renal

CN(C)c1ccc2nc3ccc(=[N+](C)C)cc-3sc2c1
GI50 [1]: 2.63 µM and 5.11 µM | TGI [1]: 12.6 µM and 25.9 µM | GI50 [2]: 1.18 µM and 2.03 µM | TGI [2]: 11.5 µM and 6.47 µM | GI50 [3]: 1.44 µM and 0.544 µM | TGI [3]: 3.68 µM and 13.6 µM | GI50 [4]: 0.404 µM and 0.65 µM | TGI [4]: 7.61 µM and 10.4 µM | GI50 [5]: 0.908 µM and 0.543 µM | TGI [5]: 16.3 µM and 46.1 µM | GI50 [6]: 0.139 µM and 0.379 µM | TGI [6]: 9.82 µM and 14.7 µM | GI50 [7]: 2.59 µM and 1.74 µM | TGI [7]: 24.8 µM and 11.1 µM | GI50 [8]: 0.36 µM and 0.558 µM | TGI [8]: 3.5 µM and 12.7 µM | GI50 [9]: 1.79 µM and 2.92 µM | TGI [9]: 10.1 µM and 17.3 µM | GI50 [10]: 0.724 µM and 0.696 µM | TGI [10]: 19.6 µM and 15.7 µM | GI50 [11]: 0.394 µM and 0.685 µM | GI50 [12]: 4.24 µM and 0.804 µM | TGI [12]: 28.3 µM and 29.4 µM | GI50 [13]: 0.236 µM and 0.321 µM | TGI [13]: 3.3 µM and 12 µM | GI50 [14]: 0.745 µM and 6.32 µM | TGI [14]: 17.8 µM and 36 µM | GI50 [15]: 0.161 µM and 0.288 µM | TGI [15]: 2.71 µM and 16.2 µM | GI50 [16]: 0.261 µM and 0.39 µM | GI50 [17]: 0.446 µM and 1.08 µM | TGI [17]: 15.4 µM and 15.1 µM | GI50 [18]: 0.146 µM and 0.39 µM | TGI [18]: 0.412 µM and 1.98 µM | GI50 [19]: 1.52 µM and 4.41 µM | TGI [19]: 4.69 µM and 18.2 µM | GI50 [20]: 0.497 µM and 0.47 µM | TGI [20]: 1.96 µM and 5.3 µM | GI50 [21]: 0.422 µM and 0.848 µM | TGI [21]: 1.77 µM and 3.57 µM | GI50 [22]: 0.219 µM and 0.411 µM | TGI [22]: 0.711 µM and 2.36 µM | GI50 [23]: 0.29 µM and 0.373 µM | TGI [23]: 2.45 µM and 5.76 µM | GI50 [24]: 2.73 µM and 10.1 µM | TGI [24]: 18 µM and 27.9 µM | GI50 [25]: 2.68 µM and 2.92 µM | TGI [25]: 17.6 µM and 27.1 µM | GI50 [26]: 2.65 µM and 3.04 µM | TGI [26]: 15.3 µM and 24.1 µM | GI50 [27]: 3.4 µM and 3.86 µM | TGI [27]: 16 µM and 14.8 µM | GI50 [28]: 4.12 µM and 6.21 µM | TGI [28]: 22 µM and 55.8 µM | GI50 [29]: 3.65 µM and 6.28 µM | TGI [29]: 19.8 µM and 29.1 µM | GI50 [30]: 2.17 µM and 1.96 µM | TGI [30]: 19.4 µM and 8.5 µM | GI50 [31]: 2.47 µM and 4.89 µM | TGI [31]: 15.9 µM and 21.9 µM | GI50 [32]: 0.304 µM and 0.324 µM | TGI [32]: 12.2 µM and 14.5 µM | GI50 [33]: 0.599 µM and 0.642 µM | TGI [33]: 11.3 µM and 17.3 µM | GI50 [34]: 1.82 µM and 12.7 µM | TGI [34]: 16.6 µM and 36.6 µM | GI50 [35]: 0.232 µM and 0.449 µM | TGI [35]: 0.906 µM and 4.5 µM | GI50 [36]: 0.0938 µM and 0.187 µM | TGI [36]: 2.28 µM and 1.35 µM | GI50 [37]: 0.329 µM and 0.934 µM | TGI [37]: 10.3 µM and 10.2 µM | GI50 [38]: 0.192 µM and 0.295 µM | TGI [38]: 1.25 µM and 3.79 µM | GI50 [39]: 0.469 µM and 0.509 µM | TGI [39]: 18.7 µM and 48.5 µM | GI50 [40]: 3.41 µM and 4.14 µM | TGI [40]: 11.2 µM and 20.8 µM | GI50 [41]: 0.344 µM and 0.657 µM | TGI [41]: 13.5 µM and 19.1 µM | GI50 [42]: 1.03 µM and 1.45 µM | TGI [42]: 57.7 µM and 46.2 µM | GI50 [43]: 0.431 µM and 1.03 µM | TGI [43]: 14.9 µM and > 37.5 µM | GI50 [44]: 1.11 µM and 0.934 µM | TGI [44]: > 27.6 µM and 15.4 µM | GI50 [45]: 0.307 µM and 0.3 µM | TGI [45]: 1.66 µM | GI50 [46]: 0.512 µM and 1.36 µM | TGI [46]: 12.9 µM and 16.9 µM | GI50 [47]: 0.214 µM and 1.23 µM | TGI [47]: 26 µM and 39.6 µM | GI50 [48]: 0.322 µM and 0.597 µM | TGI [48]: 4.99 µM and 12.7 µM | GI50 [49]: 9.74 µM and 3.26 µM | TGI [49]: 24.2 µM and 22.7 µM | GI50 [50]: 0.337 µM and 0.407 µM | TGI [50]: 1.49 µM and 3.4 µM | GI50 [51]: 0.976 µM and 1.46 µM | TGI [51]: 3.26 µM and 4.02 µM | GI50 [52]: 0.71 µM and 1.38 µM | TGI [52]: 7.05 µM and 12.6 µM | GI50 [53]: 0.808 µM and 2.64 µM | TGI [53]: 2.61 µM and 15.2 µM | GI50 [54]: 0.408 µM and 0.563 µM | TGI [54]: 23.1 µM and 14.2 µM | GI50 [55]: 0.446 µM and 0.795 µM | TGI [55]: 18.2 µM and > 100 µM | GI50 [56]: 3.08 µM and 3.62 µM | TGI [56]: > 28.2 µM and 35.6 µM | GI50 [57]: 0.248 µM and 0.341 µM | TGI [57]: 2.23 µM and 11.2 µM | GI50 [58]: 3.98 µM and 1.42 µM | TGI [58]: 16.1 µM and 17.2 µM
